Experimental findings from patent US20250042912A1, “NOVEL NON-FLUORINATED QUINOLONE COMPOUND AND USE THEREOF” (priority 2021, published 2025) are described below.

Structures can show the parent of a compound that is named as a salt. Where only a bound is given, the exact number is not on record here.

A word on the MIC: it is the lowest concentration that inhibits growth of the organism. Low values mean greater potency, high ones weaker potency.

Series [1] can be described thus: Pharmacokinetic evaluation in mice after intravenous and oral administration. Type of series: in vivo. The conditions noted are these: mouse, plasma, male CD-1 mice. Here is the method:
CD-1 mice (male, Beijing Vital River Laboratory Animal Technology Co., Ltd.)
The pharmacokinetic characteristics of rodents after intravenous and oral administration of the compounds were tested using a standard protocol. In the experiment, the candidate compounds were prepared into clear solutions and administered to mice by single intravenous injection and oral administration. The intravenous and oral vehicles were mixed vehicles of 10% DMSO+90% (20% SBE-β-CD). This project included four male CD-1 mice, two of which were administered intravenously at a dosage of 1 mg/kg, and plasma samples were collected at 0.083 hours, 0.25 hours, 0.5 hours, 1 hour, 2 hours, 4 hours, 8 hours, and 24 hours after administration; the other two mice were orally administered by gavage at a dosage of 2 mg/kg, and plasma samples were collected at 0.25 hours, 0.5 hours, 1 hour, 2 hours, 4 hours, 8 hours, and 24 hours after administration. Blood samples were placed on ice after collection, and plasma was separated by centrifugation within 1 hour (centrifugation conditions: 6000 g, 3 minutes, 2-8° C.). Plasma samples were stored in a refrigerator at −80° C. before analysis. Plasma concentrations were quantitatively analyzed using LC-MS/MS analysis method, and pharmacokinetic parameters were calculated such as peak concentration (Cmax), clearance rate (CL), half-life (T1/2), […] (Vdss), area under concentration-time curve (AUC0-last), and bioavailability (F), etc.

Series [2] has as its system Propionibacterium acnes ATCC 11827. Put plainly: Minimum inhibitory concentration (MIC) assay, Propionibacterium acnes ATCC 11827. The conditions noted are these: Cutibacterium acnes, ATCC11827; anaerobic culture 35+/-2°C, 48 hours; read with naked eyes. Type of series: cell-based. Here is the method: (§1) On the day of the experiment, the compound in the flask was dissolved in 100% DMSO until the concentration of mother liquor was 0.4 mg/mL. If the mother liquor was not used on the same day, it was stored at −80° C. for future use. The compound mother liquor and standard antibiotics were subjected to 2-fold gradient dilution with corresponding solvents on a 96-microwell plate (V-bottom) to obtain 100× working solutions (Well 1 to Well 7) in sequence. Among them, the concentrations of the compound were 400 μg/mL, 200 μg/mL, 100 μg/mL, 50 μg/mL, 25 μg/mL, 12.5 μg/mL, 6.25 μg/mL, and 3.125 μg/mL. 100% DMSO was used as growth control (Well 8). As such, the compound motherplate was obtained. Two days before the experiment, anaerobic bacteria (Propionibacterium acnes) stored in a cryogenic tube at −80° C. were scribed on an MBA (Brucella Agar+5% (v/v) defibrillated sheep blood+[…] Hemin+1 μg/mLVitamin K1) plate. The anaerobic bacteria were placed in a 35+/−2° C. anaerobic incubator for 42-48 hours of cultivation. On the day of the experiment, the plate was taken out, clones were picked from the plate and suspended in physiological saline. Then, the turbidity of the bacterial suspension (containing 1.0-2.0×10^8 CFU/mL) was adjusted to OD600=0.2 by a turbidity meter. Then, the adjusted bacterial suspension was diluted to an appropriate concentration with the assay culture medium: about 5×10^5 CFU/mL for aerobic bacteria, and about 1×10^6 CFU/mL for anaerobic bacteria. As such, the inoculating solution was obtained. […] Therefore, the final assay concentrations of the compound were 4 μg/mL, 2 μg/mL, 1 μg/mL, 0.5 μg/mL, 0.25 μg/mL, 0.125 μg/mL, 0.06 μg/mL and 0.03 μg/mL. The total volume of each well on the assay plate was 200 μL: containing 1% DMSO, about 5×10^5 CFU/mL of aerobic bacteria and about 1×10^6 CFU/mL of anaerobic bacteria. All assay plates for aerobic bacteria were aerobically cultured at 35+/−2° C. for 16 to 20 hours, and all assay plates for anaerobic bacteria were anaerobically cultured in an anaerobic incubator at 35+/−2° C. for 48 hours. Note: for anaerobic bacteria, both the preparation of bacterial solution in step 2 and the inoculation of bacterial solution in step 3 were operated in an anaerobic workstation.

Series [3] concerns Propionibacterium acnes ATCC 6919. The series can be described thus: Minimum inhibitory concentration (MIC) assay, Propionibacterium acnes ATCC 6919. Type of series: cell-based. The conditions noted are these: Cutibacterium acnes, ATCC6919; anaerobic culture 35+/-2°C, 48 hours; read with naked eyes. Here is the method:
as §1

Series [4] relates to Staphylococcus epidermidis ATCC 35983. Put plainly: Minimum inhibitory concentration (MIC) assay, Staphylococcus epidermidis ATCC 35983. Type of series: cell-based. The conditions noted are these: ATCC35983, aerobic culture 35+/-2°C, 16 to 20 hours, read with naked eyes. Here is the method:
(§2) On the day of the experiment, the compound in the flask was dissolved in 100% DMSO until the concentration of mother liquor was 0.4 mg/mL. If the mother liquor was not used on the same day, it was stored at −80° C. for future use.
(§3) The compound mother liquor and standard antibiotics were subjected to 2-fold gradient dilution with corresponding solvents on a 96-microwell plate (V-bottom) to obtain 100× working solutions (Well 1 to Well 7) in sequence. Among them, the concentrations of the compound were 400 μg/mL, 200 μg/mL, 100 μg/mL, 50 μg/mL, 25 μg/mL, 12.5 μg/mL, 6.25 μg/mL, and 3.125 μg/mL. 100% DMSO was used as growth control (Well 8). As such, the compound motherplate was obtained.
(§4) One day before the experiment, aerobic bacteria (Staphylococcus epidermidis) stored in a cryogenic tube at −80° C. were scribed on an MHA (Cation-adjusted Mueller-Hinton agar) plate. The aerobic bacteria were placed in a 35+/−2° C. incubator for 18-24 hours of aerobic cultivation.
(§5) On the day of the experiment, the plate was taken out, clones were picked from the plate and suspended in physiological saline. Then, the turbidity of the bacterial suspension (containing 1.0-2.0×10^8 CFU/mL) was adjusted to OD600=0.2 by a turbidity meter. Then, the adjusted bacterial suspension was diluted to an appropriate concentration with the assay culture medium: about 5×10^5 CFU/mL for aerobic bacteria, and about 1×10^6 CFU/mL for anaerobic bacteria. As such, the inoculating solution was obtained.
(§6) 2 μl of 2-fold series dilution of 100× high-concentration working solution was transferred from a compound mother plate (prepared in step 1) to a round-bottom 96-well plate, and then 198 μL of bacterial inoculating solution (prepared in step 2) was added to each well to obtain an MIC assay plate. Therefore, the final assay concentrations of the compound were 4 μg/mL, 2 μg/mL, 1 μg/mL, 0.5 μg/mL, 0.25 μg/mL, 0.125 μg/mL, 0.06 μg/mL and 0.03 μg/mL. The total volume of each well on the assay plate was 200 μL: containing 1% DMSO, about 5×10^5 CFU/mL of aerobic bacteria and about 1×10^6 CFU/mL of anaerobic bacteria.
(§7) All assay plates for aerobic bacteria were aerobically cultured at 35+/−2° C. for 16 to 20 hours, and all assay plates for anaerobic bacteria were anaerobically cultured in an anaerobic incubator at 35+/−2° C. for 48 hours.

The test system of series [5] is Staphylococcus epidermidis ATCC 35984. Put plainly: Minimum inhibitory concentration (MIC) assay, Staphylococcus epidermidis ATCC 35984. Type of series: cell-based. Conditions: ATCC35984, aerobic culture 35+/-2°C, 16 to 20 hours, read with naked eyes. As to the method: as §2, §3, §4, §5, §6, §7
For series [6], the system named is Staphylococcus epidermidis ATCC 12228. The series can be described thus: Minimum inhibitory concentration (MIC) assay, Staphylococcus epidermidis ATCC 12228. Conditions: ATCC12228, aerobic culture 35+/-2°C, 16 to 20 hours, read with naked eyes. Type of series: cell-based. Here is the method:
as §2, §3, §4, §5, §6, §7

In the case of `Nc1cc2c(cn1)-c1ccc3c(=O)c(C(=O)O)cn(C4CC4)c3c1COC2` [Hydrochloride of Compound 7], the bioavailability in series [1] (IV 1 mg/kg, oral gavage 2 mg/kg, read-out: Bioavailability F) turned out to be 132%. Further, the Cmax in series [1] (IV 1 mg/kg, oral gavage 2 mg/kg, route of Cmax not given, read-out: Peak concentration Cmax) was 683 nM. The clearance in series [1] (IV 1 mg/kg, read-out: Clearance rate CL) is 132 mL/min/kg. In addition, the half-life in series [1] (IV 1 mg/kg, read-out: Half-life T1/2 (IV) (converted)) was 20.5 min. Moreover, the Vd in series [1] (IV 1 mg/kg, read-out: Tissue distribution Vdss) was determined as 3.04 L/kg. Moreover, in series [1] (oral gavage 2 mg/kg, read-out: Area under concentration-time curve AUC0-last PO), the AUC(0-t) worked out at 0.924 µM·h.

As to `O=C(O)c1cn(C2CC2)c2c3c(ccc2c1=O)-c1cnc(NC[C@H](O)CO)cc1COC3` [Trifluoroacetate of Compound 22], the minimum inhibitory concentration (MIC) in series [2] came out at 0.25 µg/mL; in series [3] it was 0.25 µg/mL; in series [4], 0.25 µg/mL; in series [5], 0.12 µg/mL; in series [6] it was 0.25 µg/mL.

Regarding `CN(CC(F)F)c1cc2c(cn1)-c1ccc3c(=O)c(C(=O)O)cn(C4CC4)c3c1COC2` [Trifluoroacetate of Compound 23], the minimum inhibitory concentration (MIC) in series [2] was 0.25 µg/mL; in series [3], 0.12 µg/mL; in series [4] it was 0.12 µg/mL; in series [5], not above 0.06 µg/mL; in series [6], 0.12 µg/mL.

In the case of `N=C(N)Nc1cc2c(cn1)-c1ccc3c(=O)c(C(=O)O)cn(C4CC4)c3c1COC2` [Trifluoroacetate of Compound 27], the MIC in series [2] worked out at 1 µg/mL; in series [3], 1 µg/mL; in series [4], 0.5 µg/mL; in series [5], 0.5 µg/mL; in series [6], 0.5 µg/mL.
